What was measured:
OB3b cells = experiment: Long term packed column experiment, cyclopropanol inhibition; format: cell-based, M. trichosporium OB3b
Protocol: In some examples, OB3b cells were harvested from the chemostats described herein to make alginate beads for a long term packed column experiment. Total cell mass within the column was 300 mg with and the column void space was 6 mL. The flow rates of a methane solution (2 mg/L) were varied and the inlet and outlet concentrations were measured for a methane consumption efficiency curve shown in FIG. 45A.
An increase in methane consumption with an increase in residence time was observed. The column was then inhibited with cyclopropanol (1/10 dilution) for 18 hours. A flow rate of 2 mL/min was used for all further testing. Methane consumption decreased from 0.21 μmol/hr to 0.15 μmol/hr after the inhibition, while 0.13 μmol/hr of methanol was produced. After 24 hours methanol production decreased to 0.06 μmol/hr and methane consumption increased to 0.24 μmol/hr. The inhibition process was repeated for 18 hours and methanol production evaluated under the same operating conditions. The maximum methanol production rates lasted about 3 hours, and then declined, while methane consumption was maintained. Overall, the column responded similarly to two inhibitions ran at constant flow for two weeks with little problem.

M. trichosporium OB3b = experiment: Chemostat inhibition with cyclopropanol; format: cell-based
Excerpt: In one embodiment, a seven-liter chemostat was used to grow a culture of M. trichosporium OB3b without copper present, therefore expressing sMMO. The temperature-controlled jacketed reactor has multiple input and output lines for gas and liquid feed, a paddle stirrer for agitation, sensors for continuous monitoring of pH and DO, and metered oxygen delivery tied to a DO concentration set-point. The reactor was inoculated with a dilute culture of M. trichosporium OB3b and operated in batch mode for approximately one month before continuous fluid flow was established. […] A second two-liter chemostat growing a culture of M. trichosporium OB3b with copper present, expressing pMMO, also was used.
Cyclopropanol was added under batch-flow conditions with no methane being fed to the reactor to limit methanol competition for MDH and increase the effectiveness of the inhibitor. Methanol accumulated in solution for about 24 hours and then was slowly washed from the reactor (FIG. 35A). The microbial methanol production rate in the chemostat peaked within 24 hours at about 0.5 mg/(L*h) and was essentially zero after two days (FIG. 35B).
The activity results remained stable at the above values for 5 days after inhibition with cyclopropanol present throughout. […] Complete shutdown of methane oxidation within the chemostat most likely occurred due to very successful inhibition of MDH resulting in a loss of reducing power needed for MMO operation. […] By day 8, methane utilization and oxygen uptake were restored in the chemostat and the biomass concentration increased back to pre-inhibition values. […] The chemostat inhibition experiment is being conducted again with modifications to the concentration of inhibitor and conditions of inhibition in attempt to produce conditions for continuous methanol production and to maintain higher methane oxidation rates throughout.
In the first two embodiments an estimated 75 μg/L cyclopropanol (cPOH) was added to the chemostat. Methanol production by M. trichosporium OB3b within the chemostat lasted less than 12 hours. Following initial methanol production, cell growth ceased and cells began washing out of the reactor. Once signs of washout were observed formate was added to the chemostat to a concentration of 10 mM. […] In subsequent attempts at methanol production, smaller cyclopropanol additions were used in an attempt to inhibit the organisms enough to produce methanol without disrupting their ability to grow fast enough to avoid washout. […] In each case, a peak in cumulative methanol production was reached followed by a decline indicating the recovery of the methanol oxidation capability of the culture (FIG. 43). […] Since the cyclopropanol concentrations used in these examples were below the detection limit of the analytical method, the cyclopropanol fate in the chemostat is uncertain in some embodiments.
Throughout each experiment specific oxygen utilization rate (SOUR) tests were conducted with samples from the chemostat as indicators of MDH and methane monooxygenase (MMO) activity (FIGS. 44A and 44B). Methanol SOURs indicate essentially immediate inhibition of MDH activity, although it took up to 1 hour to reach a minimum in activity. Significant methane inhibition is indicated in the methane SOURs and it occurs with essentially the same magnitude and time scale as the methanol SOUR results. The recovery of MDH indicated by SOUR tests correlated with the observed reduction in cumulative methanol production in the chemostat. […] A peak in DO concentration was reached first followed by a peak in pH and lastly methanol concentration. The increase in pH and DO is expected to be the result of incomplete methane oxidation and a subsequent reduction in CO2 production.

[1] = tested on: M. trichosporium OB3b culture; experiment: Column packed with culture immobilized in alginate beads, cPOH inhibition; format: cell-based
Protocol: In parallel with the BLP reactor runs, the response of methane consumption and MeOH production in a column packed with M. trichosporium OB3b culture immobilized in alginate beads (0.4 mg cell protein total) was evaluated. The column was incubated under batch conditions for 18 hours with cPOH, then quickly flushed with ˜10 pore volumes of dilute growth media, before dilute media flow containing ˜200 μM CH4 was begun at a rate of 41 ml/hour (FIG. 38). Over the course of day 1, 80±10% of influent CH4 was consumed and MeOH accumulated with an efficiency (MeOH produced/CH4 consumed) of 94±21%. […] To see if MeOH production could be renewed, the column was again exposed to cPOH for 18 hours as previously described. On days 3, 4, and 7, 66±8% of influent CH4 was consumed and MeOH accumulated with an efficiency of >90%.

[2] = tested on: methanol dehydrogenase (MDH); experiment: MeOH consumption of fresh sMMO expressing culture exposed to cPOH; format: cell-based, M. trichosporium OB3b; conditions: highest concentration of cPOH added with 1 mM MeOH
Protocol: In the absence of CH4, sMMO expressing OB3b in alginate beads were incubated 18 h with cyclopropane (CP, FIG. 36A) and produced an oxidized product hypothesized to be cyclopropanol (cPOH). cPOH is more water soluble than CP, enabling removal of CP by purging the headspace with air (FIG. 36B). Work is progressing on the identification cPOH by mass spec analysis. […] Inhibition of MDH was confirmed by exposing fresh non-inhibited sMMO expressing M. trichosporium OB3b to cPOH (FIG. 36D).
In the absence of cPOH 1 mM MeOH was consumed <10 minutes, but when cPOH was added with 1 mM MeOH there was a concentration dependent effect on the rate of MeOH consumption. At low and medium cPOH concentrations, significant amounts of MeOH were consumed before the initial time points could be taken.

MDH = experiment: cPOH inhibition of MDH of culture immobilized in alginate beads; format: cell-based
Excerpt: The examples described above can be used to determine optimal cPOH concentrations and exposure time to maximize MeOH production. In some examples, cPOH inhibition is rapid and irreversible. In some examples, cPOH inhibited MDH of culture immobilized in alginate beads in less than 100 seconds, and MDH inhibition was maintained after alginate beads were rinsed to remove cPOH.

[3] = after inhibition with cyclopropanol (1/10 dilution) for 18 hours, flow 2 mL/min
[4] = post-inhibition microbial activity sampling
[5] = day 1, after 18 hours with cPOH
[6] = days 3, 4, and 7, after second 18 hours cPOH exposure

Molecule `OC1CC1` [cPOH, cyclopropanol] has a methane consumption (OB3b cells; 24 hours after inhibition) of 0.24 µmol/h, a methanol production (OB3b cells; 24 hours after inhibition) of 0.06 µmol/h and a methane consumption (OB3b cells; [3]) of 0.15 µmol/h. For the same molecule, the methanol produced (OB3b cells; [3]) was 0.13 µmol/h, the “duration of methanol production” value (M. trichosporium OB3b; addition of 2-8 mg/L cyclopropanol) was 2 to 6 h and the “effects on pH and DO concentrations within the chemostat” value (M. trichosporium OB3b; cPOH additions to reach 0.5 μg/L or lower) was “no discernable effects”. For the same molecule, the “duration of methanol production within the chemostat” value (M. trichosporium OB3b; estimated 75 μg/L cyclopropanol added) was “less than 12 hours”, the “peak microbial methanol production rate in the chemostat” value (M. trichosporium OB3b; peaked within 24 hours after cyclopropanol addition) was “about 0.5 mg/(L*h)” and the “reduction in batch methane oxidation rate” value (M. trichosporium OB3b; [4]) was 94%. The “reduction in ethylene oxidation rate” value (M. trichosporium OB3b; [4]) was 97%, the “reduction in formate-dependent oxygen uptake rate” value (M. trichosporium OB3b; [4]) was 20-25% and the “reduction in methanol-dependent oxygen uptake rate” value (M. trichosporium OB3b; [4]) was 95%. The “MeOH accumulation efficiency (MeOH produced/CH4 consumed)” value [1, 5] was 94±21%, the “influent CH4 consumed” value [1, 5] was 80±10% and the MeOH accumulation ([1]; day 2) was “no MeOH accumulated”. The “influent CH4 consumed” value ([1]; day 2) was 67±6%, the “MeOH accumulation efficiency (MeOH produced/CH4 consumed)” value [1, 6] was > 90% and the “influent CH4 consumed” value [1, 6] was 66±8%. For the same molecule, the “effect on rate of MeOH consumption” value [2] was “significantly slowed MeOH consumption” and the “time to inhibit MDH” value (MDH) was “less than 100 seconds”.
